Results published in publication PMC8636514, “Therapeutic potential of TRPM8 antagonists in prostate cancer” (Scientific Reports, 2021).
Read-outs that look alike come from different tables or passages of the source.

Biological target: T1, human TRPM8 (Homo sapiens, UniProt Q7Z2W7)
T1 construct: expressed in transfected cells; host or cells: HEK-293/TRPM8 exon1 K3 cells
Assay: Patch-clamp assay on TRPM8 channels (HEK-293/TRPM8 cells, menthol-evoked currents)
Format: cell-based
Method: Patch clamp experiments for compounds 4, 5 and 9 were done as described. HEK-293/TRPM8 exon 1 cells were seeded 3 or 4 days before experiment at a concentration of 4 and 2.5 million cells, respectively, onto a T225 flask. Before each experiment, cells were washed two times with D-PBS without Ca^2+/Mg^2+ (Euroclone, Milan, Italy) and trypsinized with trypsin−EDTA (Sigma-Aldrich; diluted 1/10). Cells were suspended in 25 mL of EX-CELL ACF CHO medium (Sigma-Aldrich, Milan, Italy), 0.625 mL of HEPES (Lonza, Walkersville, USA), 0.25 mL of 100 × penicillin/streptomycin (Lonza, Walkersville, USA), 0.1 mL of soybean trypsin inhibitor 10 mg/mL (Sigma-Aldrich), and placed on the automated patch-clamp platform (QPatch 16X, Sophion Bioscience, Ballerup, Denmark). A stock solution of L-Menthol (1 M, 100% DMSO), used as reference agonist, was freshly prepared. A diluted stock of 300 mM was prepared from the 1 M stock in 100% DMSO, and a final dilution was obtained using the extracellular solution to give a working concentration of 300 μM (1:1000, 0.1% final DMSO concentration). Stock solutions of the testing compounds (10 mM; 100% DMSO; stored at − 20 °C) were freshly prepared, as well. Further dilution of these stock solutions to a final concentration of 300 μM was performed from the 10 mM stock in 100% DMSO, and the working dilutions were performed just before the experiments using the extracellular solution containing 300 μM menthol. The highest concentration tested was 300 nM, with serial dilutions (1:10). DMSO was balanced to keep it constant throughout all the solutions in the same experiment (0.2% final DMSO concentration). Standard whole-cell voltage clamp experiments were performed at room temperature using the multihole technology. For the voltage clamp experiments on human TRPM8, data were sampled at 2 kHz. After establishment of the seal and the passage in the whole cell configuration, the cells were subjected to a voltage ramp (20 ms step at − 60 mV; 100 ms ramp − 60/ + 100 mV; 20 ms step at + 100 mV; return to − 60 mV) every 4 s. The antagonistic effect on human TRPM8 current of target compounds was evaluated after application of the agonist (menthol, 300 μM), in the absence or presence of increasing concentrations of the compound under investigation. Outward current evoked by the voltage ramp, measured in the step at + 100 mV were measured. The intracellular solution contained (mM) 135 CsCl, 10 BAPTA, 10 HEPES, 4 Na2ATP (pH 7.2 with CsOH). The extracellular solution contained (mM) 145 NaCl, 4 KCl, 1 MgCl2, 2 CaCl2, 10 HEPES, 10 glucose (pH 7.4 with NaOH). TRPM8 modulation by final compounds 3 and 6 has been previously determined by patch clamp measurements[29],[30].

T1 sequence (Q7Z2W7 whole entry): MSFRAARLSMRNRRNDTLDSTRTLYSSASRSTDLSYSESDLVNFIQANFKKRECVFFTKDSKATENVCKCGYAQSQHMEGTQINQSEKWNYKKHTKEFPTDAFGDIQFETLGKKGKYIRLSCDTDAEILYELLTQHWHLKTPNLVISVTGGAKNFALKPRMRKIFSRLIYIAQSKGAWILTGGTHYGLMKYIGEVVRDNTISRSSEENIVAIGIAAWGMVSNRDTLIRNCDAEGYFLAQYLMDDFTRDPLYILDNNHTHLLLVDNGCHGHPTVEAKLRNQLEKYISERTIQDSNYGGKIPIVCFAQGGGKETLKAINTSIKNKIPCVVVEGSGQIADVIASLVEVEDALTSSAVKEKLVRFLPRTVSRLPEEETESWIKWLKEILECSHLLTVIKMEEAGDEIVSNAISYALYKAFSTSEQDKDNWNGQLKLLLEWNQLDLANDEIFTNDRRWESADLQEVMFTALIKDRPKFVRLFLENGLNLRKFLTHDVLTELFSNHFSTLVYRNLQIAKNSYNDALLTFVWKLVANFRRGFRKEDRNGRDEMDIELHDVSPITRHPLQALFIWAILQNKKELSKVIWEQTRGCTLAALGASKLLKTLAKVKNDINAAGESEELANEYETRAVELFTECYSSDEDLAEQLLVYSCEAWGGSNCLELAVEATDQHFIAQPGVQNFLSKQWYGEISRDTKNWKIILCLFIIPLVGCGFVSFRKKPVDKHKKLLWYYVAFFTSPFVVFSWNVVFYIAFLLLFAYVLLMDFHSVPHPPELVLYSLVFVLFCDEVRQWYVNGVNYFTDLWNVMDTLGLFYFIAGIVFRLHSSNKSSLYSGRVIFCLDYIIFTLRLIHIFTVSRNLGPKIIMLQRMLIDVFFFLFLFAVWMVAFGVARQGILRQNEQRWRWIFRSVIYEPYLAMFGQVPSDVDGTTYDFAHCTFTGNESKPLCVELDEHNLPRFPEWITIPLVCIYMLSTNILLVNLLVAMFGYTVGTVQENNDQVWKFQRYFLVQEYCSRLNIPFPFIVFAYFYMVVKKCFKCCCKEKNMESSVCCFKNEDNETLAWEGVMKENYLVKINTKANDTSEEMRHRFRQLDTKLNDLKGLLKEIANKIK

With `c1ccc(COc2ccc3[nH]cc(CCNCc4ccc(Oc5ccccc5)cc4)c3c2)cc1` [Compound 4] the IC50 (300 µM menthol-evoked currents, read-out: Potency IC50) was 204 ± 15 nM, the IC50 (TRPM8 antagonist, menthol-evoked currents, one range for both compounds, read-out: IC50) was 204 to 340 nM and the “inhibitory effect on menthol-evoked TRPM8 currents” value (dependence on concentration) was “concentration-dependent”.
